In US8232377B2, “Method for high-level secretory production of protein” (priority 2006, dated 2012):

What was measured:
[1] = system: O. minuta YY1 strains; assay: Evaluation of PMT inhibitor (5a): antibody production by O. minuta YY1, Western analysis and TR-FRET quantification; format: cell-based, Ogataea minuta; conditions: 1 μm, plus 0.02 μM as OD600 increased by 1, 27° C.
Description: 20 mM Tris-HCl buffer (pH 7.2) comprising 12 μl of 0.97 μg/ml LANCE Eu-W1024 labeled anti-human IgG (PerkinElmer), 8.3 ug/ml of biotin-conjugated mouse anti-human IgG (BD Bioscience), 16.7 ug/ml Surelight APC streptavidin (PerkinElmer), and 10% of Block Ace (Dainippon Pharmaceutical) was applied to a 96-well half area plate (Corning), and 2 μl of a sample solution prepared by adequately diluting the culture solution prepared in (2) above with 20 mM Tris-HCl buffer (pH 7.2) containing 10% of Block Ace was introduced therein, followed by agitation. The sample solution was subjected to the reaction at room temperature in the dark for 1 hour, and fluorescence was then assayed using EnVision (PerkinElmer). The amount of aggregate antibodies produced was determined based on the value at 665 nm/615 nm. Antibodies produced in animal cells (CHO) were used as standard samples. […] However, similar effects of production could be expected even via introduction of the HAC1 gene derived from a species different from a host.
A platinum loopful of the O. minuta YY1 strains into which antibody genes had been introduced was inoculated into 5 ml of B2YP4G medium, cultured at 27° C. for 1 day, and diluted with B2YP4G medium to adjust OD600 at 10. […]

[2] = system: O. minuta AK3RH and O. minuta AK3AHy; assay: Antibody production by transformed O. minuta with PMT inhibitor added, Western analysis of culture supernatant; format: cell-based, Ogataea minuta; conditions: Western analysis (FIG. 6)
Description: O. minuta AK3RH and O. minuta AK3AHy were cultured in BYPG medium (1% yeast extract (Difco), 2% polypeptone (Difco), 0.5% glycerol, and 0.1M phosphate buffer (pH 6.0)) for 2 days, and these strain were cultured in BYPM media [1% yeast extract (Difco), 2% polypeptone (Difco), 1.5% methanol, and 0.1M phosphate buffer (pH 6.0)] to which 0 μM, 1 μM, 5 μM, 10 μM, 20 μM, and 50 μM PMT inhibitors (the rhodanine-3-acetic acid derivative: 5-[[3,4-(1-phenylmethoxy)phenyl]methylene]-4-oxo-2-thioxo-3-thiazolidineacetic acid (compound (1c) described in Bioorganic & Medicinal Chemistry Letters, Vol. 14, p. 3975, 2004)) had been added at 28° C. for 2 days. A culture supernatant was prepared from the culture solution and subjected to SDS-PAGE. Thereafter, the separated protein was blotted on a PVDF membrane, and Western analysis was carried out using a labeled anti-human antibody (anti-human Fc antibody). […] The adequate concentration of the PMT inhibitor to be added was 5 μM. In such a case, the amount of antibody secretion and the percentage of aggregate formation were increased.

[3] = system: O. minuta YY3P4omH strain; assay: Antibody production by PMT4-inactivated, HAC1-introduced O. minuta using PMT inhibitor (1c), TR-FRET quantification; format: cell-based, Ogataea minuta; conditions: stock solution 10 mM; 27° C., 3 days (FIG. 18)
Description: (§1) 20 mM Tris-HCl buffer (pH 7.2) comprising 12 μl of 0.97 μg/ml LANCE Eu-W1024 labeled anti-human IgG (PerkinElmer), 8.3 ug/ml of biotin-conjugated mouse anti-human IgG (BD Bioscience), 16.7 ug/ml Surelight APC streptavidin (PerkinElmer), and 10% of Block Ace (Dainippon Pharmaceutical) was applied to a 96-well half area plate (Corning), and 2 μl of a sample solution prepared by adequately diluting the culture solution prepared in (2) above with 20 mM Tris-HCl buffer (pH 7.2) containing 10% of Block Ace was introduced therein, followed by agitation. The sample solution was subjected to the reaction at room temperature in the dark for 1 hour, and fluorescence was then assayed using EnVision (PerkinElmer). The amount of aggregate antibodies produced was determined based on the value at 665 nm/615 nm. Antibodies produced in animal cells (CHO) were used as standard samples. […]
(§2) A platinum loopful of antibody-producing strains with an insertionally inactivated PMT gene and with the HAC1 gene introduced therein prepared in Example 25 (1) was inoculated into 5 ml of B2YP4G medium, cultured at 27° C. for 1 day, and diluted with B2YP4G medium to adjust OD600 to 10. […] Culture was conducted at 27° C. for an additional 3 days, OD600 was measured every 24 hours, and PMT inhibitors (1c) were added in amounts of 0.00032 μM, 0.0016 μM, 0.008 μM, and 0.04 μM, respectively, as the OD600 value increased by 1. […]

[4] = system: O. minuta YY3P2omH strain; assay: Antibody production by PMT2-inactivated, HAC1-introduced O. minuta using PMT inhibitor (1c), TR-FRET quantification; format: cell-based, Ogataea minuta; conditions: stock solution 2.5 mM; 27° C., 3 days (FIG. 18)
Description: as §1, §2

[5] = system: O. minuta AA2omH, AA2 ppH, AA2scH and AA2Hy strains; assay: Antibody production by O. minuta strains with HAC1 gene introduced using PMT inhibitor (1c), TR-FRET quantification; format: cell-based, Ogataea minuta; conditions: 2 μM, plus 0.04 μM as OD600 increased by 1; 27° C., 3 days; HAC1 strains compared with control AA2Hy strain (FIG. 11)
Description: as §1
A platinum loopful of the O. minuta AA2omH strain, the O. minuta AA2 ppH strain, the O. minuta AA2scH strain, and the O. minuta AA2Hy strain was inoculated into 5 ml of B2YP4G medium, cultured at 27° C. for 1 day, and then diluted with B2YP4G medium to adjust OD600 at 10. […] A culture supernatant was prepared from the culture solution, and the amount of antibody production was measured by the method described in Example 21 (3).

[6] = system: S. cerevisiae T2K01, T2K02, T2K03 and T2K04 strains; assay: Antibody productivity of transformed S. cerevisiae with PMT inhibitor added, sandwich ELISA; format: cell-based, Saccharomyces cerevisiae; conditions: 10 μM PMT inhibitor in YPAD medium, 30° C., 3 days (FIG. 8B)
Description: The S. cerevisiae T2K01, S. cerevisiae T2K02, S. cerevisiae T2K03, and S. cerevisiae T2K04 strains prepared in Example 14 were cultured using ST medium at 30° C. for 3 days. The culture solution was inoculated into YPAD medium to result in a final concentration of 5% therein, and culture was conducted at 30° C. for 3 days. A culture supernatant was prepared from the culture solution, and the resultant was designated as a sample containing antibodies secreted and produced by yeast. The secreted and produced antibodies were subjected to quantitative assay via sandwich ELISA. TRAIL receptor proteins that were antigens of the anti-TRAIL receptor antibodies were adsorbed on a 96-well plate, a yeast sample was added, and detection was carried out using a peroxidase-labeled human IgG specific Fc antibody (Peroxidase-labeled affinity purified antibody to human IgG (Fc) (KPL)) and the ABTS peroxidase substrate (KPL). Antibodies produced in animal cells (NS0) were used as standard samples.
The S. cerevisiae T2K01, S. cerevisiae T2K02, S. cerevisiae T2K03, and S. cerevisiae T2K04 strains prepared in Example 14 were cultured using ST medium at 30° C. for 3 days. […]

Compound	effects compared with PMT inhibitor (1c) ([1]; 3 days)	productivity of antibody aggregates ([1]; 3 days (FIG. 19, FIG. 20))	adequate concentration of the PMT inhibitor to be added ([2]; 0, 1, 5, 10, 20 and 50 μM tested in BYPM medium, 28° C., 2 days)	amount of antibody secretion ([2]; PMT inhibitor at 5 μM)	percentage of aggregate formation ([2]; PMT inhibitor at 5 μM)	PMT inhibitor amount added as the OD600 value increased by 1 giving the highest antibody productivity [3]	PMT inhibitor amount added as the OD600 value increased by 1 giving the highest antibody productivity [4]	effects of accelerating antibody secretion [5]	synergistic effects of coexpression of the activated HAC1 gene and the RRBP1 gene on antibody production [6]
CC(Oc1cc(/C=C2\SC(=S)N(CC(=O)O)C2=O)ccc1OCCc1ccccc1)c1ccccc1 (stereo not drawn) [PMT inhibitor (5a), {(5Z)-4-oxo-5-[3-(1-phenylethoxy)-4-(2-phenylethoxy)benzylidene]-2-thioxo-1,3-thiazolidin-3-yl}acetic acid]	effects equivalent to those of the PMT inhibitor (1c)	tend to increase							
5-[[3,4-(1-phenylmethoxy)phenyl]methylene]-4-oxo-2-thioxo-3-thiazolidineacetic acid [PMT inhibitor (1c)]			5 µM	increased	increased	approximately 0.04 μM	approximately 0.008 μM	more significant effects of accelerating antibody secretion	further enhanced
